Test results: patent US20200261391A1, “METHODS OF REDUCING THE RISK OF A CARDIOVASCULAR EVENT IN A STATIN-TREATED SUBJECT BY INCREASING SERUM AND PLASMA EPA AND DPA LEVELS” (Amarin Pharmaceuticals Ireland Limited, priority 2019, published 2020)

System: TG, non-HDL-C, LDL-C, HDL-C, apo B, hsCRP
Assay: REDUCE-IT trial: fasting lipid, lipoprotein and inflammatory marker data over time
Format: in vivo, human
Method: Fasting Lipid Profile: The fasting lipid panel included: TG, TC, LDL-C, HDL-C, non-HDL-C, and VLDL-C. At all visits, LDL-C was calculated using the Friedewald equation. At Visit 1 and Visit 1.1 direct LDL-C were used if at the same visit TG>400 mg/dL (4.52 mmol/L). These LDL-C values were used for the evaluation of the LDL-C inclusion criterion (LDL-C qualifying measurements for randomization) and for the assessment of changes in the statin therapy when LDL-C was not at goal. […] In addition, irrespective of the TG levels, at Visit 2 (0 Months of Follow-up, baseline) and at Visit 4 (12 Months of Follow-up), LDL-C were measured by preparative ultracentrifugation. These preparative ultracentrifugation LDL-C measurements were used in the statistical analysis including the calculation of the percent change from baseline (1 year versus baseline). Hopkins LDL-C was calculated for each visit.
Biomarkers Assays: The biomarker assays included: hsCRP, Apo B and hsTnT.
The fasting lipid panel was tested at Screening (Visit 1 or Visit 1.1), Randomization visit (Visit 2; Day 0), Visit 3 (Day 120; ˜4 Months) and all other follow-up visits including the last visit. For change from baseline to 1 year preparative ultracentrifugation measurements for LDL-C were analyzed, unless this value was missing. If the LDL-C preparative ultracentrifugation values were missing, then another LDL-C value was used, with prioritization of values obtained from LDL-C Direct measurements, followed by LDL-C derived by the Friedewald calculation (only for subjects with TG<400 mg/dL), and finally LDL-C derived using the calculation published by Hopkins University investigators (Martin S S, Blaha M J, Elshazly M B, et al. Comparison of a novel method vs the Friedewald equation for estimating low-density lipoprotein cholesterol levels from the standard lipid profile. JAMA. 2013; 310:2061-8.). In addition, change from baseline to day 120 in LDL-C utilizing Friedewald's and Hopkins methods was analyzed, using the arithmetic mean of LDL-C obtained at Visit 2 (Day 0) and the preceding Visit 1 (or Visit 1.1). If one of these values was missing, the single available LDL-C value was used. LDL-C according to Hopkins was calculated at each visit.
The randomization visit was considered Baseline. If a baseline value was not available from the randomization visit, then the latest screening value was used. For measurements of lipids, lipoproteins and inflammatory markers, the change and the percent change were summarized at each visit. Since these biomarkers are typically not normally distributed, the Wilcoxon rank-sum test was used for treatment comparisons of the percent change from baseline, and medians and quartiles were provided for each treatment group. The medians of the differences between the treatment groups and 95% CIs were estimated with the Hodges-Lehmann method. In addition, shift-tables were generated as appropriate.

CC/C=C\C/C=C\C/C=C\C/C=C\C/C=C\CCCC(=O)OCC [icosapent ethyl, eicosapentaenoic acid ethyl ester] was tested, and the “Apo B Median Observed Value” (Year 2) was 80.0 mg/dL, the “HDL-C Median % Change from Baseline” value (Year 2) was 0.0% and the “HDL-C Median Absolute Change from Baseline” value (Year 2) was 0.0 mg/dL. The “HDL-C Median Observed Value” (Year 2) was 40.0 mg/dL, the “LDL-C Hopkins Median % Change from Baseline” value (“LDL-C Hopkins Median % Change” below) (Year 2) was −0.2% and the “LDL-C Hopkins Median Absolute Change from Baseline” value (Year 2) was -0.1 mg/dL. The “LDL-C Hopkins Median Observed Value” (Year 2) was 85.5 mg/dL, the “Log hsCRP Median % Change from Baseline” value (Year 2) was −21.8% and the “Log hsCRP Median Absolute Change from Baseline” value (Year 2) was −0.1 mg/L. For the same compound, the “Log hsCRP Median Observed Value” (Year 2) was 0.6 mg/L, the “Non-HDL-C Median % Change from Baseline” value (Year 2) was −3.1% and the “Non-HDL-C Median Absolute Change from Baseline” value (from here on “Non-HDL-C Median Absolute Change”) (Year 2) was -3.5 mg/dL. For the same compound, the “Non-HDL-C Median Observed Value” (Year 2) was 113.0 mg/dL, the “Triglycerides Median % Change from Baseline” value (from here on “Triglycerides Median % Change”) (Year 2) was −18.9% and the “Triglycerides Median Absolute Change from Baseline” value (Year 2) was -38.5 mg/dL. For the same compound, the “Triglycerides Median Observed Value” (Year 2) was 173.0 mg/dL, the “hsCRP Median % Change from Baseline” value (Year 2) was −13.9% and the “hsCRP Median Absolute Change from Baseline” value (Year 2) was -0.2 mg/L. The “hsCRP Median Observed Value” (Year 2) was 1.8 mg/L, the “Apo B Between Group Difference Median % Change from Baseline” value (Year 2, vs placebo) was −9.7% and the “Apo B Between Group Difference Median Absolute Change from Baseline” value (Year 2, vs placebo) was -8.0 mg/dL. For the same compound, the “HDL-C Between Group Difference Median % Change from Baseline” value (Year 2, vs placebo) was −4.6%, the “HDL-C Between Group Difference Median Absolute Change from Baseline” value (Year 2, vs placebo) was -2.0 mg/dL and the “LDL-C Hopkins Between Group Difference Median % Change from Baseline” value (Year 2, vs placebo) was −11.1%. The “LDL-C Hopkins Between Group Difference Median Absolute Change from Baseline” value (Year 2, vs placebo) was -9.4 mg/dL, the “Log hsCRP Between Group Difference Median % Change from Baseline” value (Year 2, vs placebo) was −22.5% and the “Log hsCRP Between Group Difference Median Absolute Change from Baseline” value (Year 2, vs placebo) was −0.4 mg/L. The “Non-HDL-C Between Group Difference Median % Change from Baseline” value (Year 2, vs placebo) was −12.5%, the “Non-HDL-C Between Group Difference Median Absolute Change from Baseline” value (Year 2, vs placebo) was -14.5 mg/dL and the “Triglycerides Between Group Difference Median % Change from Baseline” value (Year 2, vs placebo) was −19.7%. For the same compound, the “Triglycerides Between Group Difference Median Absolute Change from Baseline” value (Year 2, vs placebo) was -43.8 mg/dL, the “hsCRP Between Group Difference Median % Change from Baseline” value (Year 2, vs placebo) was −39.9% and the “hsCRP Between Group Difference Median Absolute Change from Baseline” value (Year 2, vs placebo) was -0.9 mg/L. The “HDL-C Median % Change from Baseline” value (Year 3) was 0.0%, the “HDL-C Median Absolute Change from Baseline” value (Year 3) was 0.0 mg/dL and the “HDL-C Median Observed Value” (Year 3) was 40.0 mg/dL. The “LDL-C Hopkins Median % Change” value (Year 3) was −1.2%, the “LDL-C Hopkins Median Absolute Change from Baseline” value (Year 3) was -1.0 mg/dL and the “LDL-C Hopkins Median Observed Value” (Year 3) was 84.6 mg/dL. For the same compound, the “Non-HDL-C Median % Change from Baseline” value (Year 3) was −4.2%, the “Non-HDL-C Median Absolute Change” value (Year 3) was -4.8 mg/dL and the “Non-HDL-C Median Observed Value” (Year 3) was 112.0 mg/dL. For the same compound, the “Triglycerides Median % Change” value (Year 3) was −21.7%, the “Triglycerides Median Absolute Change from Baseline” value (Year 3) was -44.0 mg/dL and the “Triglycerides Median Observed Value” (Year 3) was 167.0 mg/dL. The “HDL-C Between Group Difference Median % Change from Baseline” value (Year 3, vs placebo) was −3.8%, the “HDL-C Between Group Difference Median Absolute Change from Baseline” value (Year 3, vs placebo) was -1.5 mg/dL and the “LDL-C Hopkins Between Group Difference Median % Change from Baseline” value (Year 3, vs placebo) was −10.4%. The “LDL-C Hopkins Between Group Difference Median Absolute Change from Baseline” value (Year 3, vs placebo) was -8.7 mg/dL, the “Non-HDL-C Between Group Difference Median % Change from Baseline” value (Year 3, vs placebo) was −12.4% and the “Non-HDL-C Between Group Difference Median Absolute Change from Baseline” value (Year 3, vs placebo) was -14.5 mg/dL. For the same compound, the “Triglycerides Between Group Difference Median % Change from Baseline” value (Year 3, vs placebo) was −20.3%, the “Triglycerides Between Group Difference Median Absolute Change from Baseline” value (Year 3, vs placebo) was -45.5 mg/dL and the “HDL-C Median % Change from Baseline” value (Year 4) was 1.0%. The “HDL-C Median Absolute Change from Baseline” value (Year 4) was 0.5 mg/dL, the “HDL-C Median Observed Value” (Year 4) was 40.5 mg/dL and the “LDL-C Hopkins Median % Change” value (Year 4) was −0.6%. For the same compound, the “LDL-C Hopkins Median Absolute Change from Baseline” value (Year 4) was -0.5 mg/dL, the “LDL-C Hopkins Median Observed Value” (Year 4) was 83.6 mg/dL and the “Non-HDL-C Median % Change from Baseline” value (Year 4) was −4.2%. The “Non-HDL-C Median Absolute Change” value (Year 4) was -5.0 mg/dL, the “Non-HDL-C Median Observed Value” (Year 4) was 110.5 mg/dL and the “Triglycerides Median % Change” value (Year 4) was −21.7%. The “Triglycerides Median Absolute Change from Baseline” value (Year 4) was -42.5 mg/dL, the “Triglycerides Median Observed Value” (Year 4) was 163.0 mg/dL and the “HDL-C Between Group Difference Median % Change from Baseline” value (Year 4, vs placebo) was −3.9%. The “HDL-C Between Group Difference Median Absolute Change from Baseline” value (Year 4, vs placebo) was -1.5 mg/dL, the “LDL-C Hopkins Between Group Difference Median % Change from Baseline” value (Year 4, vs placebo) was −10.6% and the “LDL-C Hopkins Between Group Difference Median Absolute Change from Baseline” value (Year 4, vs placebo) was -8.9 mg/dL. For the same compound, the “Non-HDL-C Between Group Difference Median % Change from Baseline” value (Year 4, vs placebo) was −12.0%, the “Non-HDL-C Between Group Difference Median Absolute Change from Baseline” value (Year 4, vs placebo) was -14.0 mg/dL and the “Triglycerides Between Group Difference Median % Change from Baseline” value (Year 4, vs placebo) was −17.4%. The “Triglycerides Between Group Difference Median Absolute Change from Baseline” value (Year 4, vs placebo) was -38.0 mg/dL, the “HDL-C Median % Change from Baseline” value (Year 5) was 0.0% and the “HDL-C Median Absolute Change from Baseline” value (Year 5) was 0.0 mg/dL. The “HDL-C Median Observed Value” (Year 5) was 41.0 mg/dL, the “LDL-C Hopkins Median % Change” value (Year 5) was −0.7% and the “LDL-C Hopkins Median Absolute Change from Baseline” value (Year 5) was -0.8 mg/dL. For the same compound, the “LDL-C Hopkins Median Observed Value” (Year 5) was 82.2 mg/dL, the “Non-HDL-C Median % Change from Baseline” value (Year 5) was −4.4% and the “Non-HDL-C Median Absolute Change” value (Year 5) was -5.0 mg/dL. For the same compound, the “Non-HDL-C Median Observed Value” (Year 5) was 109.0 mg/dL, the “Triglycerides Median % Change” value (Year 5) was −20.0% and the “Triglycerides Median Absolute Change from Baseline” value (Year 5) was -38.0 mg/dL. The “Triglycerides Median Observed Value” (Year 5) was 158.0 mg/dL, the “HDL-C Between Group Difference Median % Change from Baseline” value (Year 5, vs placebo) was −3.0% and the “HDL-C Between Group Difference Median Absolute Change from Baseline” value (Year 5, vs placebo) was -1.5 mg/dL. The “LDL-C Hopkins Between Group Difference Median % Change from Baseline” value (Year 5, vs placebo) was −8.0%, the “LDL-C Hopkins Between Group Difference Median Absolute Change from Baseline” value (Year 5, vs placebo) was -6.6 mg/dL and the “Non-HDL-C Between Group Difference Median % Change from Baseline” value (Year 5, vs placebo) was −9.9%. The “Non-HDL-C Between Group Difference Median Absolute Change from Baseline” value (Year 5, vs placebo) was -11.0 mg/dL, the “Triglycerides Between Group Difference Median % Change from Baseline” value (Year 5, vs placebo) was −16.7% and the “Triglycerides Between Group Difference Median Absolute Change from Baseline” value (Year 5, vs placebo) was -33.5 mg/dL. For the same compound, the “reduction in hsCRP” value (in vivo) was 40%.
